From paper PMC3171403, “Two Functionally Distinctive Phosphopantetheinyl Transferases from Amoeba Dictyostelium discoideum” (PLoS ONE, 2011)

Assays:
Assay type in all cases: biochemical
DiSfp [1] = target: T1, DiSfp (Dictyostelium discoideum, UniProt Q54MI2); assay: HPLC and MALDI-TOF of holo-ACP formation; conditions: 250 uM CoA; 54 uM apo DiPKS16 ACP; 12.5 mM MgCl2, Tris-Cl pH 8.0, 37 C
T1 construct: gene DDB_G0285927; full gene (2 exons) in pET28a, N-terminal His6 tag, E. coli BL21(DE3); 34 kDa

DiAcpS [2] = target: T2, DiAcpS (Dictyostelium discoideum, UniProt Q552R4); assay: HPLC and MALDI-TOF of holo-ACP formation; conditions: 250 uM CoA; 54 uM apo-ACP (Rv1344 or Dictyostelium stand-alone ACP); 12.5 mM MgCl2, Tris-Cl pH 8.0, 37 C
T2 construct: gene DDB_G0275923; full gene (2 exons) in pET28a, N-terminal His6 tag, E. coli BL21(DE3); expected 20 kDa, runs at about 27 kDa

DiSfp [3] = target: T1, DiSfp; assay: gel-based radiolabel transfer to apo-ACP, phosphorimager; conditions: labelled compound; 5-45 uM; 20 uM enzyme; 54 uM mycobacterial PKS2; 12.5 mM MgCl2, Tris-Cl pH 8.0, 30 C (gel-binding assay); only kcat/Km in text
DiAcpS [4] = target: T2, DiAcpS; assay: as above; conditions: labelled compound; 5-45 uM; 20 uM enzyme; 54 uM mycobacterial ACP Rv1344; 12.5 mM MgCl2, Tris-Cl pH 8.0, 30 C (gel-binding assay); only kcat/Km in text

T2 sequence (Q552R4 entry or part of it): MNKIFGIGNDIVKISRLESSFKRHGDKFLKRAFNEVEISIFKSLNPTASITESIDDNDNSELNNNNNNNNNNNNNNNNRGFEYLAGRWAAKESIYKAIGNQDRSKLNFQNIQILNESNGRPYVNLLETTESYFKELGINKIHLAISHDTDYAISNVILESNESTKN
T1 sequence (Q54MI2 entry or part of it): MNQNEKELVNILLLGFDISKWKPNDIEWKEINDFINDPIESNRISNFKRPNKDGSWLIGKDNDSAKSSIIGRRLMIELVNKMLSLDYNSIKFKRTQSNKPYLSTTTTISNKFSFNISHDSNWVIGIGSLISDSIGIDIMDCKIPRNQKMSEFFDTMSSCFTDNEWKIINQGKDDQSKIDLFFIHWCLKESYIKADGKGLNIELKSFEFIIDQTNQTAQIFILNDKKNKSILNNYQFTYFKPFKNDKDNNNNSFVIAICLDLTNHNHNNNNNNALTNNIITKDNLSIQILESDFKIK

SMILES	HPLC and MALDI-TOF of holo-ACP formation (DiSfp [1])	HPLC and MALDI-TOF of holo-ACP formation (DiAcpS [2])	gel-based radiolabel transfer to apo-ACP, phosphorimager (DiSfp [3])	gel-based radiolabel transfer to apo-ACP, phosphorimager (DiAcpS [4])
CC(C)(COP(=O)(O)OP(=O)(O)OC[C@H]1O[C@@H](n2cnc3c(N)ncnc32)[C@H](O)[C@@H]1OP(=O)(O)O)[C@@H](O)C(=O)NCCC(=O)NCCS [coenzyme A]	DiSfp resulted in a shift of ACP retention time on reverse-phase column	DiAcpS mediated conversion of apo- to holo-ACP resulted in shift in the retention time		
CC(=O)SCCNC(=O)CCNC(=O)[C@H](O)C(C)(C)COP(=O)(O)OP(=O)(O)OC[C@H]1O[C@@H](n2cnc3c(N)ncnc32)[C@H](O)[C@@H]1OP(=O)(O)O [acetyl CoA]			phosphopantetheinylation only by DiSfp and no activity could be observed for DiAcpS	Kinetics of DiAcpS with the ACP was determined by varying the concentrations of acetyl CoA
